“Also recorded” adds a separate entry of the source. Read-outs that look alike come from different tables or passages of the source.
Legend:
[1] = system: IL-13 induced STAT6 phosphorylation in HT-29 human colorectal adenocarcinoma cells; test: Cellular JAK potency assay: inhibition of IL-13; type: cell-based; settings: HT-29 cells
Description: The potency of test compounds for inhibition of the JAK-dependent cytokine interleuken-13 (IL-13) was assessed by measuring IL-13 (IL-13, R&D Systems) induced STAT6 phosphorylation in HT-29 human colorectal adenocarcinoma cells (ATCC).
The anti-STAT6 antibody (Cell Signaling Technologies) was conjugated to AlphaScreen acceptor beads (Perkin Elmer), while the anti-pSTAT6 (pTyr641) antibody (Cell Signaling Technologies) was biotinylated using EZ-Link Sulfo-NHS-Biotin (Thermo Scientific).
HT-29 cells were grown at 37° C. in a 5% CO2 humidified incubator in McCoy's 5a Modified medium (ATCC) supplemented with 10% FBS (Hyclone), 100 U/mL penicillin, 100 μg/mL streptomycin (Life Technologies), and 2 mM GlutaMAX (Life Technologies). On day 1 of the assay, cells were seeded at a 7,500 cells/well density in white poly-D-lysine-coated 384-well plates (Corning) with 25 μL medium, and were allowed to adhere overnight in the incubator. On day 2 of the assay, the medium was removed and replaced with 12 μL of assay buffer (Hank's Balanced Salt Solution/HBSS, 25 mM HEPES, and 1 mg/ml bovine serum albumin/BSA) containing dose-responses of test compounds. Compounds were serially diluted in DMSO and then diluted another 1000-fold in media to bring the final DMSO concentration to 0.1%. Cells were incubated with test compounds at 37° C. for 1 h, and followed by the addition of 12 μl of pre-warmed IL-13 (12 ng/ml in assay buffer) for stimulation. After incubating at 37° C. for 30 min, the assay buffer (containing compound and IL-13) was removed, and 10 μl of cell lysis buffer (25 mM HEPES, 0.1% SDS, 1% NP-40, 5 mM MgCl2, 1.3 mM EDTA, 1 mM EGTA, and supplement with Complete Ultra mini protease inhibitors and PhosSTOP from Roche Diagnostics). The plates were shaken at ambient temperature for 30 min before the addition of detection reagents. A mixture of biotin-anti-pSTAT6 and anti-STAT6 conjugated acceptor beads was added first and incubated at ambient temperature for 2 h, followed by the addition of streptavidin conjugated donor beads (Perkin Elmer). After a minimum of 2 h incubation, the assay plates were read on the EnVision plate reader.
Results were expressed as the negative logarithm of the IC50 value, pIC50.

[2] = target: JAK2 (Homo sapiens (Human), UniProt O60674); test: LanthaScreen JAK biochemical assay, JAK2
Description: (§1) A panel of four LanthaScreen JAK biochemical assays (JAK1, 2, 3 and Tyk2) were carried in a common kinase reaction buffer (50 mM HEPES, pH 7.5, 0.01% Brij-35, 10 mM MgCl2, and 1 mM EGTA). Recombinant GST-tagged JAK enzymes and a GFP-tagged STAT1 peptide substrate were obtained from Life Technologies.
(§2) Serially diluted compounds were pre-incubated with each of the four JAK enzymes and the substrate in white 384-well microplates (Corning) at ambient temperature for 1 h. ATP was subsequently added to initiate the kinase reactions in 10 μl total volume, with 1% DMSO. […] The plates were allowed to incubate at ambient temperature for 1 h before being read on the EnVision reader (Perkin Elmer).
(§3) For dose-response analysis, percent inhibition data were plotted vs. compound concentrations, and IC50 values were determined from a 4-parameter robust fit model with the Prism software (GraphPad Software). Results were expressed as pIC50 (negative logarithm of IC50) and subsequently converted to pKi (negative logarithm of dissociation constant, Ki) using the Cheng-Prusoff equation.

[3] = target: JAK3 (Homo sapiens (Human), UniProt P52333); test: LanthaScreen JAK biochemical assay, JAK3
Description: as §1, §2, §3

[4] = Determination of absorption in cannulated rats; type: in vivo, Sprague Dawley rats; settings: rat, oral vs IV dose
Description: Oral bioavailability (F %), fraction absorbed (Fa%) and fraction escaping hepatic clearance (Fh%) were determined in Sprague Dawley rats from the following two studies:
(1) Pharmacokinetics in rats following an IV dose of test compound: Following IV dosing, plasma samples were typically collected from 0-6 hr. Drug levels were determined using an LC-MS-MS method. The resulting drug levels were used to compute the IV pharmacokinetic parameters: AUC IV and Dose IV.
(2) Rats that have been cannulated in their portal vein (PV) and also in their jugular vein (JV) were dosed orally with test compound. Following oral dosing, plasma samples were typically collected from 0-6 hr from both the portal vein and the jugular vein. Drug levels were determined using an LC-MS-MS method. The resulting drug levels were used to compute the following pharmacokinetic parameters: AUC PO PV, AUC PO JV, and Dose PO.
Using data derived from the above studies, the oral bioavailability F %, and the quantities Fa% and Fh% were calculated from the following formulas: F%=(AUC PO JV/AUC IV)*(Dose IV/Dose PO)*100 Fa%=(AUC PO PV/AUC IV)*(Dose IV/Dose PO)*100 Fh%=AUC PO JV/AUC PO PV • where: • AUC PO JV=Area under the curve following oral dose and plasma collected from the jugular vein • AUC PO PV=Area under the curve following oral dose and plasma collected from the portal vein • AUC IV=Area under the curve following an intravenous dose • Dose IV=Intravenous Dose in mg/kg • Dose PO=Oral Dose in mg/kg

[5] = system: oxazolone-induced colitis; test: Mouse model of oxazolone-induced colitis; type: in vivo, BALB/C mice; settings: mice, PO, 1, 3, and/or 10 mg/kg BID
Description: Oxazolone-induced colitis is an experimental model that has a histological resemblance to human ulcerative colitis (Heller et al. […], 2002, 17, 629-638). Adult BALB/C mice from Harlan were used in the assay. On day 1, animals were lightly anesthetized with isoflurane and the hairs between the shoulder were carefully removed before oxazolone (4%, 150 μL, 4:1 acetone: olive oil formulation) or vehicle solution was slowly applied for skin sensitization. Seven days after skin sensitization, the mice were fasted overnight, anesthetized with isoflurane inhalation, and a 1 mL syringe equipped with a 3.5-F catheter, filled with oxazolone solution, was inserted carefully about 4 cm into the colon of the mouse. Following insertion, 50 μL of the oxazolone solution (1%, 1:1 ethanol:water formulation) was injected very slowly (over 30 sec using an injection pump) into the colon. The catheter was removed and the mice were held vertically (head down) for 2 min to ensure that the entire oxazolone solution remained inside the colon. Drug treatment (PO, BID or TID) or vehicle was initiated a day prior to the oxazolone intrarectal (IR) challenge. Two-day post oxazolone intrarectal challenge, the Disease Activity Index (DAI) was assessed by treatment-blinded experimenters for each mouse according to the criteria score: stool consistency score (0, normal; 2, loose; 4, diarrhea), gross bleeding score (0, absence; 2, blood tinged; 4, presence), and weight loss score (0, none; 1, 1%-5%; 2, 5%-10%; 3, 10%-20%; 4, more than 20%); DAI=average of (stool consistency score+gross bleeding score+weight loss score).

[6] = target: Tyk2 (Homo sapiens (Human), UniProt P29597); test: LanthaScreen JAK biochemical assay, Tyk2
Description: as §1, §2, §3

[7] = target: JAK1 (Homo sapiens (Human), UniProt P23458); test: LanthaScreen JAK biochemical assay, JAK1
Description: as §1, §2, §3

[8] = in vivo
Description: The objective of this assay was to determine the epidermal, dermal and plasma pharmacokinetics of a test compound following a 24 hr exposure to intact mouse or mini-pig skin.
Twenty-four hours prior to dosing the hair was shaved from the back of 25 g male Balb/c mice exposing an area at of least 6 cm^2 (about 10% of body surface) and, in a separate experiment, of 10 kg Gottingen mini-pigs exposing an area of at least 450 cm^2 (about 10% of body surface). […] The skin was covered with an adhesive cover to prevent loss of compound to the cage or bedding.
Following 24 h exposure, the backs were gently washed with soap and water to remove non-absorbed drug and patted dry. Immediately following this washing, blood was drawn by cardiac puncture from the mice and via venipuncture from the mini-pigs. The outer skin (stratum corneum) was then removed by adhesive tape stripping. Upon exposure of the epidermis a 0.5 cm punch biopsy was taken. The epidermis and dermis were quickly separated, weighed and snap frozen.

[9] = system: TPA-induced increase in ear thickness; test: Topical TPA-induced irritant contact dermatitis model in mice; type: in vivo, Balb/c mice; settings: 6 hours after TPA
Description: The objective of this assay is to assess the anti-inflammatory effect in a model of acute dermatitis of test compounds being studied for cutaneous inflammatory conditions such as atopic dermatitis (Dong et al., J Pharmacol Exp Ther, 2013, 344, 436-446).
Topical dermal application of phorbol ester 12-O-tetradecanoylphorbol-13-acetate (TPA) in mice causes an inflammatory response that is characterized by edema and neutrophil influx at the early phase (2-24 h) and by epidermal cell proliferation at the later phase (24-48 h) (Griffiths et al., Agents and Actions, 1988, 25, 344-351). Female Balb/c mice were topically administered with either vehicle (1:7 DMSO:acetone) or 20 μL of a solution of TPA (2.5 μg) in vehicle on each ear. At 30 min before and 15 min after TPA administration, either vehicle or the compound of Example 2 at doses of 30, 100, 300, 1000, and 3000 μg in vehicle was applied topically to each ear. The degree of inflammation was assessed as the change in ear thickness at 6 hours after TPA application.

[10] = system: mouse splenic NK, B and T cells; settings: in vivo; for treatment effect on B and T cell populations: po
Description: Depletion of mouse splenic cells is an experimental model of immunosuppression (Kudlacz et al., Am. J. of Transplantation, 2004, 4, 51-57). The compound of Example 2 was assessed in the mouse splenic cell model following the same treatment paradigm as that used in the oxazolone-induced colitis model (Assay 8).
The compound (1, 10 and 100 mg/kg, BID) and tofacitinib (30 and 60 mg/kg, BID) as a positive control were dosed orally for three days to naïve mice. Spleens were harvested 1 h post last dose and crushed immediately for cell subtype staining. Prior to fixation, fluorophore-labelled antibodies for CD19 (FITC; B cells), CD3e (PE; pan T cells) and DX5 (APC; NK cells) were incubated with splenocyte samples from each animal to allow for simultaneous, multiple subtype % analysis on the flow cytometer. The number of total spleen cells for each animal was measured by Scepter™ 2.0 Handheld Automated Cell Counter.
The absolute number of lymphocyte subtype population (e.g., splenic B, T and NK cells) was calculated from the percentage of each subtype times total spleen cells for each animal. A one way ANOVA, with Dunnett's post hoc test, was used to compare the splenic lymphocytes number of the vehicle and test compound groups. The a level was set at p<0.05. Data were presented as the mean±SEM for each group.

[11] = Colon pharmacokinetics in rats; type: in vivo, Sprague Dawley rats; settings: rat, upon oral administration, dose not stated

Sequence of JAK3 (P52333 whole entry): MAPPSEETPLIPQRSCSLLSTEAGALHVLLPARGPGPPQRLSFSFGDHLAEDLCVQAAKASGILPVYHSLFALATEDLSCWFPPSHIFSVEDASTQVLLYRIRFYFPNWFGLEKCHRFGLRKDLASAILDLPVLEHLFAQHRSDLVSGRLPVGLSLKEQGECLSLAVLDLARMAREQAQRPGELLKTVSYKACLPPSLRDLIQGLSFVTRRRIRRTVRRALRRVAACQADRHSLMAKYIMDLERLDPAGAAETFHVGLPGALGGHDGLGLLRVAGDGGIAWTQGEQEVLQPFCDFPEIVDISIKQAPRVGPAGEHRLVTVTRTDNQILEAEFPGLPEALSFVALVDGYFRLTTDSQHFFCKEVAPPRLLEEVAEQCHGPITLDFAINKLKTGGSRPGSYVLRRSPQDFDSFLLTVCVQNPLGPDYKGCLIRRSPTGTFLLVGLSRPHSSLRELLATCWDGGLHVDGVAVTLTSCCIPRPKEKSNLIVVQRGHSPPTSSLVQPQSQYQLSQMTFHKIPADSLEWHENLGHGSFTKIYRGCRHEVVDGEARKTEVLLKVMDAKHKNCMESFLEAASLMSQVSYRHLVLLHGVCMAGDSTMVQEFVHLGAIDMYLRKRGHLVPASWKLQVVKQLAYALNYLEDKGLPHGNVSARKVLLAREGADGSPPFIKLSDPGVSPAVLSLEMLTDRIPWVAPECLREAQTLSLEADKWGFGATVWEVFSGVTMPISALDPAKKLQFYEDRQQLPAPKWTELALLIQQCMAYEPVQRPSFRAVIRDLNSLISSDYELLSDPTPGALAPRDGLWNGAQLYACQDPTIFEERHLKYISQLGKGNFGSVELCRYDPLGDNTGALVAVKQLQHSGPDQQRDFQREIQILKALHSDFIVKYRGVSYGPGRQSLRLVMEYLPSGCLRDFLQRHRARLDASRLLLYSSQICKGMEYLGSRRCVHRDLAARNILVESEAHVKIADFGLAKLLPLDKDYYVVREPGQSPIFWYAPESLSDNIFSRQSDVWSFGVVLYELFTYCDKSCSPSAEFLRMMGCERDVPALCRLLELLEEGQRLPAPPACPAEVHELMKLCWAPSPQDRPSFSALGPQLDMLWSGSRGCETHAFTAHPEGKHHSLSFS
Sequence of JAK1 (P23458 whole entry): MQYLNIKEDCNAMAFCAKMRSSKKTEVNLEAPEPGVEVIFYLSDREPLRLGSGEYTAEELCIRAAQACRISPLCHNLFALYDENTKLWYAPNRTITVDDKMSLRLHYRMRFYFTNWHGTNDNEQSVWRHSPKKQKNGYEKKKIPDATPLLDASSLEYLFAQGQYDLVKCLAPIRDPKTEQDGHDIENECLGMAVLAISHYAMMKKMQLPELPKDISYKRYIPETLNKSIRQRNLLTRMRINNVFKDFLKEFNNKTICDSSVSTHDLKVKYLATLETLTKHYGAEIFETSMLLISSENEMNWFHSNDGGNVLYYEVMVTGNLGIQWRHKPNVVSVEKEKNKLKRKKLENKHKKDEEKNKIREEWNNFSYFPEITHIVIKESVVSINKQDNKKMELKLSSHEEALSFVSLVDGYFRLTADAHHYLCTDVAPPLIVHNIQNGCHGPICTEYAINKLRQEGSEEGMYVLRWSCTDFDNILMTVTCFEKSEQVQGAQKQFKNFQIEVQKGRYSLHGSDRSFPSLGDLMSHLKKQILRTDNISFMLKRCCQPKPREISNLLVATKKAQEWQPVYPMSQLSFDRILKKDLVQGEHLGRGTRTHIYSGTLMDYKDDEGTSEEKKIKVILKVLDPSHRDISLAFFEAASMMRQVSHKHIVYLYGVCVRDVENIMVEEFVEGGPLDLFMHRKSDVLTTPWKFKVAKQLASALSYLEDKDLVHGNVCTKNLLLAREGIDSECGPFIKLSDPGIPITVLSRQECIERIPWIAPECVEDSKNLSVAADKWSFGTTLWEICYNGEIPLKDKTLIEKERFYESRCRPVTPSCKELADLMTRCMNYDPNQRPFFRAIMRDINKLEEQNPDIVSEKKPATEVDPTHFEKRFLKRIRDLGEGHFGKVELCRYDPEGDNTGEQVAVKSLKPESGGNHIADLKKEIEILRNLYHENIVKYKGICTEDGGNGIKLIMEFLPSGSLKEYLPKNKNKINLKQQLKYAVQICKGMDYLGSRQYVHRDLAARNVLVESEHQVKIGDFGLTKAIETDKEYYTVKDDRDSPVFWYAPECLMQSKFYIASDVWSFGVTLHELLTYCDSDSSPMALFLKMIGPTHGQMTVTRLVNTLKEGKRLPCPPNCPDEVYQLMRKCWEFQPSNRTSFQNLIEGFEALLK
Sequence of Tyk2 (P29597 whole entry): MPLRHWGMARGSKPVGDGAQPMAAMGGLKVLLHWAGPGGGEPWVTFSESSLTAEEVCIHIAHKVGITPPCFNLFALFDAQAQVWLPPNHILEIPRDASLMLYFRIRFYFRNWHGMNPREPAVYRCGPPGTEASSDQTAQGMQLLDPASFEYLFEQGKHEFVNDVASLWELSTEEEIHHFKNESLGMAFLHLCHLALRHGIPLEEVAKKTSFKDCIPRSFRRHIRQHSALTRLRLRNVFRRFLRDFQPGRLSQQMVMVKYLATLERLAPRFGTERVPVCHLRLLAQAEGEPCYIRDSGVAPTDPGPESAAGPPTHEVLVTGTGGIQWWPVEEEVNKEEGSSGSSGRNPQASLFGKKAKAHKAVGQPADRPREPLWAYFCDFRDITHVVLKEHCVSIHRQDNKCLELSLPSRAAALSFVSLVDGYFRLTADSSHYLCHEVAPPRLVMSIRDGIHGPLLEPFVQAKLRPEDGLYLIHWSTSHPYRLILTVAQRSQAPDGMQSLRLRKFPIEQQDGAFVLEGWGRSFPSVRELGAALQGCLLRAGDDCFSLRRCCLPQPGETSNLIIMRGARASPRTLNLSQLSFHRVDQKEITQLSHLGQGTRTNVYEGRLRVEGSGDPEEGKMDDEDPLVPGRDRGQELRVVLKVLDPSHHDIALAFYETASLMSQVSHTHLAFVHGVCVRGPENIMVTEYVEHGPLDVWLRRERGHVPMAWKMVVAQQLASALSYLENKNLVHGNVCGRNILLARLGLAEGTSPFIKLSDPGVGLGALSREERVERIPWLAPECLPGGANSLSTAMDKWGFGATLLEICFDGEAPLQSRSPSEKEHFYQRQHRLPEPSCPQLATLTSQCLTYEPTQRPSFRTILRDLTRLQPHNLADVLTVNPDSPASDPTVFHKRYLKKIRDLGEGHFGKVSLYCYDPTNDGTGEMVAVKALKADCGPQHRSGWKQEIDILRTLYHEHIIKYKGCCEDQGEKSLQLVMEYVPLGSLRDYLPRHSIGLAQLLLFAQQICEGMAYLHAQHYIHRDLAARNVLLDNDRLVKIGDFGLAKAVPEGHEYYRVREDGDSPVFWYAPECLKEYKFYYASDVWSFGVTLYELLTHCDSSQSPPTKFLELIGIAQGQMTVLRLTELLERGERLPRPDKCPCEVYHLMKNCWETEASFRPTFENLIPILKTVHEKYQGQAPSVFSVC
Sequence of JAK2 (O60674 whole entry): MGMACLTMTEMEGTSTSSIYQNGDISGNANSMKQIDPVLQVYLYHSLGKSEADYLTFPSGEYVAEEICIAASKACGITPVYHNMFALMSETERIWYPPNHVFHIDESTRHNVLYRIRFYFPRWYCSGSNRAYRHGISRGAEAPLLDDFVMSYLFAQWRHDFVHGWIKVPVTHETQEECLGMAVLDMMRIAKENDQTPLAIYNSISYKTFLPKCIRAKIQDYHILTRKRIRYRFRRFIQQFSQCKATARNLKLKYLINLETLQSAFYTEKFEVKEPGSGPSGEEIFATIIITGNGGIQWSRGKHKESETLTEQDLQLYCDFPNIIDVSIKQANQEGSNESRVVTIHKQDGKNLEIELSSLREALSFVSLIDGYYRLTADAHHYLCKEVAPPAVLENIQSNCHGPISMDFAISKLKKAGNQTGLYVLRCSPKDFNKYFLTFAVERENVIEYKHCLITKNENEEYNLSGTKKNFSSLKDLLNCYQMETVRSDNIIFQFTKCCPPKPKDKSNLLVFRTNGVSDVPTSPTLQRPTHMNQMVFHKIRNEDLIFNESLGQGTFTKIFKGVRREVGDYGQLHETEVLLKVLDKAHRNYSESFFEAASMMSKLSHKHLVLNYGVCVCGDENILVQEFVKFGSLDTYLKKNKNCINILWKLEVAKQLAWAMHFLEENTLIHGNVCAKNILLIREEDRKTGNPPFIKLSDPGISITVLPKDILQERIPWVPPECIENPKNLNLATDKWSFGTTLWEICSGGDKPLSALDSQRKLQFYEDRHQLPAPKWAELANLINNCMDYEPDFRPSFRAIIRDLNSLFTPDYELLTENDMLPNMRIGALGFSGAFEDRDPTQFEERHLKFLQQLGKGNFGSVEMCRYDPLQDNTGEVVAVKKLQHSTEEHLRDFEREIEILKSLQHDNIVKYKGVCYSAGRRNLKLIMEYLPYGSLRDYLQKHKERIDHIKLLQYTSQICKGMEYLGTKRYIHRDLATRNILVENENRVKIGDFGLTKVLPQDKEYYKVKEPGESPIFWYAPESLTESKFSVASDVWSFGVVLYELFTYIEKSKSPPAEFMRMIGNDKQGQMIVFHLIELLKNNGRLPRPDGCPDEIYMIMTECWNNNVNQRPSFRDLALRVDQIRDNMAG

| SMILES | HT-29 (pIC50) [1] | JAK 2 (pKi) [2] | JAK 3 (pKi) [3] | oral bioavailability (F %) ([4]; jugular vein) | absorption at the portal vein (Fa%) [4] | decrease in DAI score as compared with vehicle treated animals [5] | Tyk 2 (pKi) [6] | JAK 1 (pKi) [7] | duration of sustained dermal levels ([8]; Gottingen, minipig) | duration of sustained dermal levels ([8]; male, Balb/c, mouse) | inhibition of TPA-induced increase in ear thickness ([9]; topical 30-3000 μg per ear) | maximum statistically significant inhibition of TPA-induced increase in ear thickness ([9]; topical, 1000 μg dose) | effect of immunosuppression [10] | treatment effect on B and T cell populations [10] | ratio of exposure in the colon to exposure in plasma [11] |
| --- | --- | --- | --- | --- | --- | --- | --- | --- | --- | --- | --- | --- | --- | --- | --- |
| COc1cc(Nc2cc(CO)[nH]n2)nc(N(C)[C@@H]2C[C@H]3CC[C@@H](C2)N3S(=O)(=O)N2CC(C#N)C2)n1 [Example 1, 1-(((1R,3s,5S)-3-((4-((5-(Hydroxymethyl)-1H-pyrazol-3-yl)amino)-6-methoxypyrimidin-2-yl)(methyl)amino)-8-azabicyclo[3.2.1]octan-8-yl)sulfonyl)azetidine-3-carbonitrile] | B (B represents a pIC50 value between 6.7 and 7.5 (IC50 between 200 nM and 32 nM)) | A (A represents a pKi value ≥10 (Ki≤0.1 nM)) | C (C represents a pKi value between 8 and 9 (Ki between 10 nM and 1 nM)) | less than 5% | less than 25% | did not exhibit a statistically significant decrease | B (B represents a pKi value between 9 and 10 (Ki between 1 nM and 0.1 nM)) | A (A represents a pKi value ≥10 (Ki≤0.1 nM)) | – | – | – | – | – | – | – |
| COc1cc(Nc2cc(CO)[nH]n2)nc(N(C)[C@@H]2C[C@H]3CCC[C@@H](C2)N3S(=O)(=O)N2CC(C#N)C2)n1 [Example 2, 1-(((1R,3s,5S)-3-((4-((5-(Hydroxymethyl)-1H-pyrazol-3-yl)amino)-6-methoxypyrimidin-2-yl)(methyl)amino)-9-azabicyclo[3.3.1]nonan-9-yl)sulfonyl)azetidine-3-carbonitrile] | – | – | – | – | less than 25% | demonstrated activity; also recorded: statistically significant decrease | – | – | at least 7 days | at least 2 days | dose- and concentration-dependent effect; also recorded: dose- and concentration-dependent inhibition | 41% | minimal effect of immunosuppression | No treatment effect | greater than 250 |
| C[C@@H]1CCN(C(=O)CC#N)C[C@@H]1N(C)c1ncnc2[nH]ccc12 [tofacitinib, reference compound] | – | – | – | – | – | – | – | – | – | – | – | – | – | No treatment effect | – |
